Test results published in ChEMBL document CHEMBL1143272, “(S)-N-(5-Chlorothiophene-2-sulfonyl)-beta,beta-diethylalaninol a Notch-1-sparing gamma-secretase inhibitor” (Bioorg Med Chem Lett, 2009).
Converted amounts (≈) assume the structure as drawn.

Legend:
[1] = Inhibition of gamma-secretase-mediated amyloid beta 40/42 accumulation assessed as beta-CTF cleavage by cell-based sandwich ELISA
[2] = Inhibition of gamma-secretase by Notch-1 cleavage assay
[3] = Selectivity ratio of EC50 for gamma-secretase assessed as Notch-1 cleavage to EC50 for gamma-secretase assessed as beta-CTF cleavage
[4] = Solubility of compound at pH 7.4; format: physicochemical; conditions: buffer
Cytochrome P450 2C9 = Cytochrome P450 2C9 (Homo sapiens, UniProt P11712); assay: Inhibition of CYP2C9 at 50 uM; format: ADME
Cytochrome P450 3A4 = Cytochrome P450 3A4 (Homo sapiens, UniProt P08684); assay: Inhibition of CYP3A4 at 50 uM; format: ADME
Cytochrome P450 2D6 = Cytochrome P450 2D6 (Homo sapiens, UniProt P10635); assay: Inhibition of CYP2D6 at 50 uM; format: ADME
Mus musculus [5] = assay: Reduction in amyloid beta 40 level in Tg2576 mouse brain at 20 mg/kg, sc; format: functional; parameters: scale not given: the % may be the effect or the level left; conditions: route subcutaneous
Mus musculus [6] = assay: Reduction in amyloid beta 40 level in Tg2576 mouse brain at 1 mg/kg, sc administered subchronically for 5 days; format: functional; parameters: scale not given: the % may be the effect or the level left; conditions: route subcutaneous
Mus musculus [7] = assay: Reduction in amyloid beta 42 level in Tg2576 mouse brain at 1 mg/kg, sc administered subchronically for 5 days; format: functional; parameters: scale not given: the % may be the effect or the level left; conditions: route subcutaneous

Cytochrome P450 2D6, sequence (P10635 whole entry): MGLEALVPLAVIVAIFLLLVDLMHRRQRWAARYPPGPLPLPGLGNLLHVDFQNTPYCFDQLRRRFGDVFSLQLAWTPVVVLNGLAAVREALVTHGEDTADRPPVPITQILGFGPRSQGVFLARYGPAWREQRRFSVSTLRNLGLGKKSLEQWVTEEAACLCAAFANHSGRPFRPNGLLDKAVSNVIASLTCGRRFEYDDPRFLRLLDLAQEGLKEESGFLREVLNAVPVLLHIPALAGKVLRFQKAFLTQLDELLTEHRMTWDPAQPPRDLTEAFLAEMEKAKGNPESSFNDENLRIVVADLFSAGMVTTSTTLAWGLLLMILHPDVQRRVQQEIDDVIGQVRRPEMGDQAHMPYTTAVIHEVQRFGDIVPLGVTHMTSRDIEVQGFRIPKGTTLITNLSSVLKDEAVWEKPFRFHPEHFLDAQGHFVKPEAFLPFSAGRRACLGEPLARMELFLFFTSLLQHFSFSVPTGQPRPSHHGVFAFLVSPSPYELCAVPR
Cytochrome P450 2C9, sequence (P11712 whole entry): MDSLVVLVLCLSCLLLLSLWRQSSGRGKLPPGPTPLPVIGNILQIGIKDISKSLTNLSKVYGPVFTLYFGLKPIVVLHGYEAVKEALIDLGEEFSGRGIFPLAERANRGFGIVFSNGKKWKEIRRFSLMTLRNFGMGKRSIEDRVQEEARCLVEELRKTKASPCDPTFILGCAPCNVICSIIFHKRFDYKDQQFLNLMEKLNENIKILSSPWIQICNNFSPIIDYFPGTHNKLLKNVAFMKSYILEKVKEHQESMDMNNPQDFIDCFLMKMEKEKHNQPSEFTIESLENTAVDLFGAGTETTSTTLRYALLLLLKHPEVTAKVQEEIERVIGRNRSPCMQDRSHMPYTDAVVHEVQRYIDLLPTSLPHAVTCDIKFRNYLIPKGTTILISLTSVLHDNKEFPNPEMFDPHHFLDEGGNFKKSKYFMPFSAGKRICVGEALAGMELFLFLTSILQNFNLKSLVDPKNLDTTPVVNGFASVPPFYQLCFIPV
Cytochrome P450 3A4, sequence (P08684 whole entry): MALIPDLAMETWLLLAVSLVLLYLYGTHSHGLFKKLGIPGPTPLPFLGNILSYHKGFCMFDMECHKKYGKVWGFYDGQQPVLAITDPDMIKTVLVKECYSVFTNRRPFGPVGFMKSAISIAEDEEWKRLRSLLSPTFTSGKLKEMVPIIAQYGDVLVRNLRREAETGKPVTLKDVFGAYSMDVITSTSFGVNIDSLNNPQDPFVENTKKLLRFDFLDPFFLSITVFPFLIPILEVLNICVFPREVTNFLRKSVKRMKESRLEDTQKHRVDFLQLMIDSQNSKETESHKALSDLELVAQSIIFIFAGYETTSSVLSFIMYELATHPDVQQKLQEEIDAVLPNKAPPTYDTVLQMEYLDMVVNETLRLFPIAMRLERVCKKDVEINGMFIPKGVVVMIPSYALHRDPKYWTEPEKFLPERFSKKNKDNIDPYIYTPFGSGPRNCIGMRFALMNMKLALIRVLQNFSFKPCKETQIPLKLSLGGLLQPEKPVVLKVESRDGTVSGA

CC[C@H](CC(C)C)[C@@H](CO)NS(=O)(=O)c1ccc(Cl)s1
EC50 [1]: 0.028 µM

CCCCC[C@H](c1ccccc1)[C@@H](CO)NS(=O)(=O)c1ccc(Cl)s1
EC50 [1]: > 30 µM

CCCCCC[C@@H](CCC)[C@@H](CO)NS(=O)(=O)c1ccc(Cl)s1
EC50 [1]: 0.826 µM

CC[C@H](C)[C@@H](CO)NS(=O)(=O)c1ccccc1
EC50 [1]: 4.7 µM

CCC[C@H](c1ccccc1)[C@@H](CO)NS(=O)(=O)c1ccc(Cl)s1
EC50 [1]: 4.05 µM

C[C@@H](c1ccccc1)[C@@H](CO)NS(=O)(=O)c1ccc(Cl)s1
EC50 [1]: 3.91 µM

CCC[C@H](C)[C@@H](CO)NS(=O)(=O)c1ccc(Cl)s1
EC50 [1]: 0.103 µM

CCCCC[C@H](CC(C)C)[C@@H](CO)NS(=O)(=O)c1ccc(Cl)s1
EC50 [1]: 20.7 µM

CC[C@H](C)[C@@H](CO)NS(=O)(=O)c1cc(Cl)c(Cl)s1
EC50 [1]: 1.05 µM

CC(C)[C@@H](CO)NS(=O)(=O)c1ccc(Cl)s1
EC50 [1]: 0.82 µM

CCCC(CCC)[C@@H](CO)NS(=O)(=O)c1ccc(Cl)s1
EC50 [1]: 0.111 µM

CC[C@H](C)[C@@H](CO)NS(=O)(=O)c1ccc(Cl)o1
EC50 [1]: > 30 µM

CC[C@H](C)[C@@H](CO)NS(=O)(=O)c1ccc(Cl)cc1
EC50 [1]: 5.5 µM

CC[C@H](C)[C@@H](CO)NS(=O)(=O)c1ccc(Cl)s1
EC50 [1]: 0.17 µM

CC[C@H](C)[C@@H](CO)NS(=O)(=O)c1ccc(Br)s1
EC50 [1]: 0.16 µM

O=S(=O)(N[C@H](CO)C1CCCC1)c1ccc(Cl)s1
EC50 [1]: 0.58 µM

CC(C)[C@@](C)(CO)NS(=O)(=O)c1ccc(Cl)s1
EC50 [1]: 0.49 µM

CCCCC[C@H](C)[C@@H](CO)NS(=O)(=O)c1ccc(Cl)s1
EC50 [1]: 0.264 µM

CCC[C@H](CC(C)C)[C@@H](CO)NS(=O)(=O)c1ccc(Cl)s1
EC50 [1]: 0.253 µM

CC[C@@H](C)[C@@H](CO)NS(=O)(=O)c1ccc(Cl)s1
EC50 [1]: 0.14 µM

CC[C@H](C)[C@@H](CO)NS(=O)(=O)c1sc(Cl)cc1Br
EC50 [1]: > 30 µM

CCCCC(CCCC)[C@@H](CO)NS(=O)(=O)c1ccc(Cl)s1
EC50 [1]: 4.18 µM

CCCCCC[C@@H](C(C)C)[C@@H](CO)NS(=O)(=O)c1ccc(Cl)s1
EC50 [1]: 0.071 µM

CCCCCC[C@H](CC)[C@@H](CO)NS(=O)(=O)c1ccc(Cl)s1
EC50 [1]: 0.429 µM

O=S(=O)(N[C@H](CO)C1CCNCC1)c1ccc(Cl)s1
EC50 [1]: > 30 µM

O=S(=O)(N[C@H](CO)C1CCCCC1)c1ccc(Cl)s1
EC50 [1]: 0.82 µM

CC(C)C[C@@H](CO)NS(=O)(=O)c1ccc(Cl)s1
EC50 [1]: > 30 µM

CC[C@H](C)[C@@H](CO)NS(=O)(=O)c1ccc(F)s1
EC50 [1]: 0.46 µM

CCCCCC[C@@H](CC)[C@@H](CO)NS(=O)(=O)c1ccc(Cl)s1
EC50 [1]: 0.043 µM

CCCCCC[C@@H](CCCCC)[C@@H](CO)NS(=O)(=O)c1ccc(Cl)s1
EC50 [1]: > 30 µM

O=S(=O)(N[C@H](CO)C(c1ccccc1)c1ccccc1)c1ccc(Cl)s1
EC50 [1]: > 30 µM

CCC[C@H](CC)[C@@H](CO)NS(=O)(=O)c1ccc(Cl)s1
EC50 [1]: 0.029 µM

CCC(CC)[C@@H](CO)NS(=O)(=O)c1ccc(Cl)s1 [GSI-136]
EC50 [1]: 0.028 µM
EC50 [2]: 0.266 µM
Activity [3]: 9.5
solubility [4]: 0.037 µg/mL (≈ 0.119 µM)
Activity (Cytochrome P450 2C9): Not Active
Activity (Cytochrome P450 3A4): Not Active
Activity (Cytochrome P450 2D6): Not Active
Activity (Mus musculus [5]): 55%
Activity (Mus musculus [6]): 25%
Activity (Mus musculus [7]): 15%

CC(C)C[C@@H](C)[C@@H](CO)NS(=O)(=O)c1ccc(Cl)s1
EC50 [1]: 0.115 µM

CC[C@H](C)[C@@H](CO)NS(=O)(=O)c1cccs1
EC50 [1]: 7 µM

CC[C@H](C)[C@@H](CO)NS(=O)(=O)c1ccc(Br)cc1
EC50 [1]: 2.2 µM

CC[C@@H](C)[C@H](CO)NS(=O)(=O)c1ccc(Cl)s1
EC50 [1]: 7.6 µM

CCCCC[C@H](CC)[C@@H](CO)NS(=O)(=O)c1ccc(Cl)s1
EC50 [1]: 0.072 µM

CC(C)(C)[C@@H](CO)NS(=O)(=O)c1ccc(Cl)s1
EC50 [1]: 7.5 µM

CCCCCC[C@@H](C)[C@@H](CO)NS(=O)(=O)c1ccc(Cl)s1
EC50 [1]: 0.212 µM
